“Also recorded” adds a separate entry of the source. Peptide text beside a SMILES is read from it. * marks the point of attachment. Cbz = O=C(OCc1ccccc1)*
B1: OPG: Osteoprotegerin, decoy receptor that binds RANKL; used as control in osteoclastogenesis assay (protein, UniProt O00300 22-401, looked up)
Tumor necrosis factor …: ETFPPKYLHYDEETSHQLLCDKCPPGTYLKQHCTAKWKTVCAPCPDHYYTDSWHTSDECLYCSPVCKELQYVKQECNRTHNRVCECKEGRYLEIEFCLKHRSCPPGFGVVQAGTPERNTVCKRCPDGFFSNETSSKAPCRKHTNCSVFGLLLTQKGNATHDNICSGNSESTQKCGIDVTLCEEAFFRFAVPTKFTPNWLSVLVDNLPGTKVNAESVERIKRQHSSQEQTFQLLKLWKHQNKDQDIVKKIIQDIDLCENSVQRHIGHANLTFEQLRSLMESLPGKKVGAEDIEKTIKACKPSDQILKLLSLWRIKNGDQDTLKGLMHALKHSKTYHFPKTVTQSLKKTIRFLHSFTMYKLYQKLFLEMIGNQVQSVKISCL

Tests used:
Snail = assay: Western blot analysis, Snail; format: cell-based, human; settings: 5 μM Z-FY-CHO, 72 h
Description: (§1) We also performed Western blot analysis of whole cell lysates obtained from untreated control and MSKE treatments. ARCaPE and MCF-7 cells over expressing Snail were treated with MSKE for 3 days, and probed for Snail, phosph-STAT-3 (p-STAT3), and […] Western blot analysis.
(§2) Cells were lysed in a modified RIPA buffer (50 mM Tris pH 8.0, 150 mM NaCl, 0.02% NaN3, 0.1% SDS, 1% NP-40, 0.5% sodium deoxycholate) containing 1.5× protease inhibitor cocktail, 1 mM phenylmethylsufonyl fluoride (PMSF), and 1 mM sodium orthovanadate. Whole cell lysates were freeze-thawed at −80° C./4° C. for three cycles, then centrifuged at 13,000 rpm for 30 min at 4° C. Supernatants were collected and quantified using a micro BCA assay (Promega, Madison, Wis.). 40 μg of cell lysate was resolved using 10% SDS PAGE, followed by transblotting onto nitrocellulose membrane (Bio-Rad Laboratories, Hercules, Calif.). Membranes were blocked with 3% milk (TBS-T containing 3% milk), then washed and incubated with primary antibody dilution buffer. […]
(§3) The expression levels of Snail, mature CatL, STAT-3 and Phospho-STAT-3 (pstat-3) were determined with western blot. […] Mature Cathepsin L activity was determined by gelatin zymography. Cathepsin L activity was quantified with densitometry of each band on the gel. […]

Cathepsin L (CatL) = molecular target: T1, Cathepsin L (CatL) (Homo sapiens, UniProt P07711); assay: Cathepsin gelatin zymography of conditioned media; format: cell-based; settings: 5 μM Z-FY-CHO, 72 h; vs untreated control
T1 construct: endogenous in cells; host or cells: conditioned media of ARCaP-E Snail, MCF-7 Snail and C4-2 cells
T1 sequence (P07711 114-333): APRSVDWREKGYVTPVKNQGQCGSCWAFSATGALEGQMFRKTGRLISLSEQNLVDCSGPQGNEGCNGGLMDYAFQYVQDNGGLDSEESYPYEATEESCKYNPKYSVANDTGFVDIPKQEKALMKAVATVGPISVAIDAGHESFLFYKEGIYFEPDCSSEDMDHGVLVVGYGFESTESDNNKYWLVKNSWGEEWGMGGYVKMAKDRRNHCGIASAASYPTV
Description: We also performed cathepsin zymography to detect cathepsin activity in untreated control and MSKE treatments. ARCaPE and MCF-7 cells over expressing Snail were treated with MSKE for 3 days using the condition media from the […]. With these steps we were able to detect higher CatL activity (enzymes hydrolyze the embedded substrate in situ, and proteolytic activity can be visualized as cleared bands) in cells overexpressing Snail as compared to Neo empty vector control cells.
We utilized the cathepsin zymography technique as previously described. Briefly, 1 mL of conditioned media (CM) containing 0.1 mM leupeptin was concentrated utilizing vivaspin tube (GE Health Care). The concentrated CM was diluted by adding […] of the sample to 45 μl of 1× RIPA buffer followed by determination of the protein concentration using BCA protein assay kit. […] Cathepsin activity was subsequently quantified using densitometry (NIH Image J). […]
as §3

[1] = system: ARCaP-Snail/MCF-7 Snail co-cultured with spleen macrophages; assay: In vitro osteoclastogenesis assay (TRAP staining of mature osteoclasts); format: cell-based, human; settings: vs untreated control
Description: We obtained MSKE from Dr Tamaro Hudson, our collaborator from Howard University and used it to perform osteoclastogenesis assay on prostate and breast cancer cell lines, including one in which Snail, a transcription factor, is overexpressed. 3×10^3 ARCaP-Neo/MCF-7 Neo or ARCaP-Snail/ MCF-7 Snail was co-cultured with 40×10^4 spleen macrophages in 48-well plates plus 1 ng/ml M-CSF plus or minus 5 μg/ml MSKE, 20 μg/ml MSKE, and 5 μM Z-FY-CHO CatL inhibitor.
The cells were fed every three days by replacing half the media with fresh media plus or minus MSKE or Z-FY-CHO. Macrophages alone were utilized as a negative control. After 7-14 days the cells were fixed with 3% formaldehyde and processed for TRAP staining according to manufacturer instructions, to visualize the formation of mature osteoclasts.
3×10^3 ARCaP-Neo/MCF-7 Neo or ARCaP-Snail/MCF-7 Snail was co-cultured with 40×10^4 spleen macrophages in 48-well plates plus 1 ng/ml M-CSF plus or minus 5 μg/mL MSKE, 20 μg/mL MSKE or […] Z-FY-CHO Cat L inhibitor. […]
3×10^3 or 1×10^3 prostate cancer cells overexpressing Snail (see FIG. 5) and breast cancer cells overexpressing Snail (FIG. 6) were co-cultured with 40×10^4 Macrophages for 14 days and treated with 50 ng/mL osteoprotogerin (control), 5 μM Z-FY-CHO, 5 μg/mL or 20 μg/ML MSKE. […] Osteoclasts were determined by having 3 or more nuclei (FIGS. 5 and 6 insets). […]

[2] = system: MCF-7 and ARCaP-E cells over expressing Snail; assay: In vitro cell migration assay (collagen I transwell); format: cell-based, human; settings: 5 μM Z-FY-CHO for 72 hours; migration 5 hours
Description: We utilized Costar 24-well plates containing a polycarbonate filter insert with an 8-μm pore size, to coat with 4.46 μg/μl rat tail collagen I on the outside for 24 h at 4° C. 5×10^4 cells were plated in the upper chamber containing RPMI supplemented with 0.1% fetal bovine serum (FBS) while the lower chamber contained RPMI supplemented with 10% FBS. After 5 h, cells that migrated to the bottom of the insert were fixed, stained with 0.05% crystal violet, and counted to obtain the relative cell migration.
FIGS. 4A and 4B show MCF-7 and ARCaP-E cells over expressing Snail treated with 5 μg/mL, 20 μg/mL Muscadine Grape Skin Extract (MSKE) and 5 μM Z-FY-CHO for 72 hours. 5×10^4 cells were plated on transwell coated with Type-I collagen as described in the materials and methods section. The cells were allowed to migrate for 5 hours and then fixed and stained. The number of cells that migrated through the transwell membranes was determined by counting at least 4 random microscopic fields.

mature CatL = assay: Western blot analysis, mature CatL; format: cell-based, human; settings: 5 μM Z-FY-CHO, 72 h
Description: as §1, §2, §3

p-STAT-3 = assay: Western blot analysis, phospho-STAT-3; format: cell-based, human; settings: 5 μM Z-FY-CHO, 72 h
Description: as §1, §2, §3

[3] = system: MCF-7 and ARCaP-E cells over expressing Snail; assay: In vitro cell invasion assay (Matrigel); format: cell-based, human; settings: 5 μM Z-FY-CHO for 72 hours; invasion 24 hours
Description: The invasive properties of the cell lines were measured using the BD BioCoat Matrigel Invasion guidelines. Briefly, Boyden chamber inserts (Thermo Fisher Scientific, Waltham, Mass., USA) were coated with 40 μl 1:4 Matrigel and allowed to solidify at 37° C. for 1 h. 5×10^4 cells were seeded in triplicate in 0.1% FBS, while the lower chamber contained 10% FBS. Cells were allowed to invade through the porous membrane coated with Matrigel at 37° C. for 24-72 h. Inserts were fixed, stained with 0.05% crystal violet. Cell counts were performed for the determination of relative cell invasion.
FIGS. 4C and 4D represent cell invasion of the same cell lines. 5×10^4 cells were plated on transwells coated with Matrigel. Cell invasion was allowed to take place for 24 hours. The number of cells that invaded through the transwell membranes were determined by counting at least 4 random microscopic fields. Compared to neo empty vector cells overexpressing Snail represent an increase in migration and invasion. MSKE and Z-FY-CHO decrease migratory and invasive cells. Asterisks represent p-value of statistical significance (n=3, ***p<0.001, **p<0.01, *p<0.05). Values were normalized to untreated controls and the mean±SEM of data were obtained from three independent replicate experiments with at least three wells per treatment group in each individual replicate. Statistical analysis was done with Student t test.

rat bone cells = settings: by inhibiting collagen degradation; cited from earlier work

| Molecule | Snail expression (Snail) | amount of active CatL (CatL activity) (Cathepsin L (CatL)) | formation of osteoclasts ([1]; 5 μM Z-FY-CHO, prostate and breast cancer cells overexpressing Snail co-cultured with macrophages) | cell migration [2] | Cat L expression (mature CatL) | STAT-3 activation (p-STAT-3) (p-STAT-3) | cell invasion [3] | bone resorption (rat bone cells) | formation of osteoclasts ([1]; 50 ng/ml OPG) |
| --- | --- | --- | --- | --- | --- | --- | --- | --- | --- |
| O=C[C@H](Cc1ccc(O)cc1)NC(=O)[C@H](Cc1ccccc1)NC(=O)OCc1ccccc1 [Z-FY-CHO] (Cbz-Phe-Tyr-aldehyde) | decrease | significantly decreased; also recorded: decrease | significantly decrease; also recorded: significantly abrogated | abrogated; also recorded: decrease | decrease | decrease | abrogated; also recorded: decrease | inhibit | – |
| B1 | – | – | – | – | – | – | – | – | significantly decreased |
